# Laboratory results reported in publication PMC5700124 (Scientific Reports, 2017).
# Entries after “also recorded” stand apart in the source; their conditions may differ. Read-outs that look alike come from different tables or passages of the source.
# Legend:
# [1] = tested on: α7 nicotinic acetylcholine receptors; parameters: method as in PMID 26455500; conditions: 1.24 mg/kg; cited from earlier work
# α2 adrenoceptor = conditions: anterior forebrain; autoradiography; pH 7.7, 22 °C, mg^2+ 0; blocking of NS phentolamine 10 μM; ref Boyajian et al.[41]; cited from earlier work
# plasma proteins [2] = tested on: plasma proteins; parameters: method as in PMID 7836362; conditions: cited from earlier work
# α1 and α2 adrenoceptors = tested on: α1 and α2 adrenoceptors; parameters: method as in PMID 16153828; conditions: cited from earlier work
# plasma proteins [3] = assay: Plasma ultrafiltration, ex vivo (plasma free fraction fP of [^11C]yohimbine); assay type: in vitro ADME, rat; conditions: 0.3 mg/kg yohimbine i.v., P < 0.05
# Method: In the ex vivo experiment, a separate group of six female Sprague Dawley rats were subjected to plasma ultrafiltration and treated identically to animals that underwent PET acquisition. […] We centrifuged the blood samples in heparinized tubes for 20 min at 4 °C to generate plasma and stored the samples at −50 °C.
# To measure fP , we used the Centrifree centrifugal filter device (Millipore, Bedford, MA) with a molecular cutoff of 30 kDa for all samples. […] On the day of fP determination, the plasma samples were thawed in room temperature in 20 min. […] After 10 minutes incubation at room temperature, aliquots of 50 μl of this solution were used to measure the total activity (unfiltered plasma). […] The activity of filtered plasma was determined in triplicates. All samples were counted in a gamma device (Packard Cobra Gamma Counter, Model D5003). […] The correction factor, r, was determined as the ratio of the activity in the phosphate buffer before filtration, Abuffer(total), to the filtered buffer, Abuffer(ultrafiltrate),38 r=Abuffer(total)/Abuffer(ultrafiltrate), from which the plasma-free fraction, fP , was calculated as the ratio of the activity of the filtered plasma, Aplasma(ultrafiltrate), to the unfiltered plasma, Aplama(total), multiplied by the correction factor, r, for recovery,39 fP=rAplasma(ultrafiltrate)/Aplasma(total),
# [4] = tested on: [^11C]mirtazepin binding in porcine brain; parameters: method as in Smith et al.[34]; conditions: ref Smith et al.[34], cited from earlier work
# [5] = parameters: method as in Jakobsen et al.[14]; conditions: pigs, ref Jakobsen et al.[14], cited from earlier work
# α2 adrenoceptor subtypes = tested on: α2 adrenoceptor subtypes; parameters: method as in PMID 7908054; conditions: cited from earlier work
# α2 adrenoceptors [6] = assay: PET of [^11C]yohimbine binding in rat brain at baseline and at challenge with unlabeled yohimbine; conditions: for Binding potentials, BPND, percent-wise change (%) / Volumes of Distribution, VT, percent-wise change (%): COLD vs BASE, individual rats 1-5
# [7] = rats; cited from earlier work
# α2 adrenoceptors [8] = tested on: α2 adrenoceptors; parameters: method as in Jakobsen and colleagues[14]; conditions: porcine brain, ref Jakobsen and colleagues[14], cited from earlier work
# plasma proteins [9] = conditions: in the circulation; cited from earlier work
# [10] = tested on: translocator protein (TSPO); parameters: method as in Hilmer et al.[39]; conditions: 0.1 ng/kg i.v.; ref Hilmer et al.[39]; cited from earlier work
# [11] = CEREB cerebellum, unlabeled yohimbine 0.3 mg/kg i.v.
# [12] = CP caudate putamen, unlabeled yohimbine 0.3 mg/kg i.v.
# [13] = HYP hypothalamus, unlabeled yohimbine 0.3 mg/kg i.v.
# [14] = MC motor cortex, unlabeled yohimbine 0.3 mg/kg i.v.
# [15] = OLF olfactory bulb, unlabeled yohimbine 0.3 mg/kg i.v.
# [16] = PFC prefrontal cortex, unlabeled yohimbine 0.3 mg/kg i.v.
# [17] = SSC somatosensory cortex, unlabeled yohimbine 0.3 mg/kg i.v.
# [18] = THAL thalamus, unlabeled yohimbine 0.3 mg/kg i.v.
# [19] = unlabeled yohimbine 0.3 mg/kg vs baseline
compound,measurement,setting,value
O=S1(=O)c2cc(N3CCN4CCC3CC4)ccc2-c2cccc(F)c21 [ASEM],increase of fP of [^18F] DBT-10,[1],two-fold increase
"COC(=O)[C@H]1[C@H]2C[C@H]3c4[nH]c5ccccc5c4CCN3C[C@H]2CC[C@@H]1O [[^3H] -rauwolscine, [^3H]rauwolscine]",Kd,α2 adrenoceptor,0.79 nM
C=CC1=C(C)/C(=C/c2[nH]c(Cc3[nH]c(/C=C4\NC(=O)C(C)=C4C=C)c(C)c3CCC(=O)O)c(CCC(=O)O)c2C)NC1=O [bilirubin],rate of relaxation from plasma proteins,plasma proteins [2],0.6 s⁻¹
Cc1ccc(N(CC2=NCCN2)c2cccc(O)c2)cc1 [phentolamine],selectivity between α1 and α2 adrenoceptors,α1 and α2 adrenoceptors,higher selectivity to α1 adrenoceptor
COC(=O)[C@@H]1[C@H]2C[C@H]3c4[nH]c5ccccc5c4CCN3C[C@@H]2CC[C@@H]1O [yohimbine],increase of plasma free fraction fP of [^11C]yohimbine compared to baseline,plasma proteins [3],30%
same,reduction of [^11C]mirtazepin binding,[4]; 0.3 mg/kg,23%
same,reduction of [^11C]mirtazepin binding,[4]; 3.0 mg/kg,43%
same,global lowering of CBF,[5]; higher dose 1.6 mg/kg,30%
same,effect on CBF,[5]; low dose 0.07 mg/kg,unaffected
same,affinity to α2 adrenoceptor subtypes,α2 adrenoceptor subtypes,does not distinguish between the subtypes
same,"Binding potentials, BPND, percent-wise change (%)",α2 adrenoceptors [6]; [11],(−54) %; also recorded: (−63) %; also recorded: (−82) %; also recorded: (−56) %; also recorded: (−51) %
same,"Volumes of Distribution, VT, percent-wise change (%)",α2 adrenoceptors [6]; [11],(19) %; also recorded: (5) %; also recorded: (0) %; also recorded: (16) %; also recorded: (27) %
same,"Binding potentials, BPND, percent-wise change (%)",α2 adrenoceptors [6]; [12],(−64) %; also recorded: (−59) %; also recorded: (−55) %; also recorded: (−47) %
same,"Volumes of Distribution, VT, percent-wise change (%)",α2 adrenoceptors [6]; [12],(−6) %; also recorded: (5) %; also recorded: (25) %; also recorded: (3) %; also recorded: (34) %
same,"Binding potentials, BPND, percent-wise change (%)","α2 adrenoceptors [6]; HIP hippocampus, unlabeled yohimbine 0.3 mg/kg i.v.",(−59) %; also recorded: (−58) %; also recorded: (−50) %; also recorded: (−54) %; also recorded: (−46) %
same,"Volumes of Distribution, VT, percent-wise change (%)","α2 adrenoceptors [6]; HIPP hippocampus, unlabeled yohimbine 0.3 mg/kg i.v.",(4) %; also recorded: (9) %; also recorded: (36) %; also recorded: (14) %; also recorded: (35) %
same,"Binding potentials, BPND, percent-wise change (%)",α2 adrenoceptors [6]; [13],(−58) %; also recorded: (−61) %; also recorded: (−65) %; also recorded: (−53) %; also recorded: (−49) %
same,"Volumes of Distribution, VT, percent-wise change (%)",α2 adrenoceptors [6]; [13],(7) %; also recorded: (5) %; also recorded: (13) %; also recorded: (18) %; also recorded: (33) %
same,"Binding potentials, BPND, percent-wise change (%)",α2 adrenoceptors [6]; [14],(−63) %; also recorded: (−65) %; also recorded: (−50) %; also recorded: (−61) %; also recorded: (−42) %
same,"Volumes of Distribution, VT, percent-wise change (%)",α2 adrenoceptors [6]; [14],(1) %; also recorded: (−6) %; also recorded: (39) %; also recorded: (−1) %; also recorded: (44) %
same,"Binding potentials, BPND, percent-wise change (%)",α2 adrenoceptors [6]; [15],(−71) %; also recorded: (−60) %; also recorded: (−78) %; also recorded: (−53) %; also recorded: (−58) %
same,"Volumes of Distribution, VT, percent-wise change (%)",α2 adrenoceptors [6]; [15],(−15) %; also recorded: (10) %; also recorded: (−6) %; also recorded: (22) %; also recorded: (23) %
same,"Binding potentials, BPND, percent-wise change (%)",α2 adrenoceptors [6]; [16],(−63) %; also recorded: (−60) %; also recorded: (−39) %; also recorded: (−61) %; also recorded: (−44) %
same,"Volumes of Distribution, VT, percent-wise change (%)",α2 adrenoceptors [6]; [16],(−1) %; also recorded: (4) %; also recorded: (53) %; also recorded: (0) %; also recorded: (40) %
same,"Binding potentials, BPND, percent-wise change (%)",α2 adrenoceptors [6]; [17],(−63) %; also recorded: (−62) %; also recorded: (−45) %; also recorded: (−59) %; also recorded: (−41) %
same,"Volumes of Distribution, VT, percent-wise change (%)",α2 adrenoceptors [6]; [17],(−2) %; also recorded: (0) %; also recorded: (47) %; also recorded: (3) %; also recorded: (45) %
same,"Binding potentials, BPND, percent-wise change (%)",α2 adrenoceptors [6]; [18],(−58) %; also recorded: (−57) %; also recorded: (−52) %; also recorded: (−44) %
same,"Volumes of Distribution, VT, percent-wise change (%)",α2 adrenoceptors [6]; [18],(7) %; also recorded: (22) %; also recorded: (15) %; also recorded: (37) %
same,"degree of saturation, s (available receptors blocked)","α2 adrenoceptors [6]; average, 0.3 mg/kg yohimbine challenge, Extended Inhibition Plot",56%
same,decline of BPND of [^11C]yohimbine in the challenge condition compared to baseline,"α2 adrenoceptors [6]; on average, unlabeled yohimbine 0.3 mg/kg i.v.",50–60%
same,effect of challenge on K1 of [^11C]yohimbine,α2 adrenoceptors [6]; [19],markedly elevated
same,effect of challenge on k2′ of [^11C]yohimbine,α2 adrenoceptors [6]; [19],higher
same,effect on blood pressure and heart rate,[7],raise blood pressure and heart rate
same,reduction of VT of [^11C]yohimbine,α2 adrenoceptors [8]; low dose 0.07 mg/kg,approximately 30%
same,reduction of VT of [^11C]yohimbine,α2 adrenoceptors [8]; pre-treatment 1.7 mg/kg,failed to decrease VT further
same,fraction bound to plasma proteins,plasma proteins [9],More than 80%
lipopolysaccharide [LPS],increase of [^11C] PBR28 VT,[10],39%
